Test systems include RPMI-8226 leukemia; SF-268 CNS; KM12 colon; HOP-62 NSCLC; K-562 leukemia; NCI-H460 lung; SNB-75 CNS; TK-10 renal; SK-MEL-28 melanoma; MCF7 breast.
Holding throughout (assay): inhibition of tumour cell growth, NCI panel, 48 h

Structures are written as SMILES.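 Cells were grown in 96-well plates and exposed to each compound for 48 hours at five concentrations; endpoints were interpolated linearly between bracketing concentrations, or set to the highest concentration if not reached. GI50: concentration for 50% inhibition of growth. TGI: total growth inhibition.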

Take `Cc1cc(Cl)ccc1NC(=O)CCCC(=O)C(C(=O)c1ccccc1)c1ccccc1` (stereo not drawn): the TGI in the assay with RPMI-8226 leukemia, in the assay on SF-268 CNS, with KM12 colon, in the assay on HOP-62 NSCLC, in the assay on K-562 leukemia and with NCI-H460 lung was over 100 µM in each case.
On to `O=C(O)c1oc2cccc3c2c1CCC3`, for which the TGI with RPMI-8226 leukemia, in the assay with SF-268 CNS, with KM12 colon, in the assay with HOP-62 NSCLC, with SNB-75 CNS and in the assay with K-562 leukemia was over 100 µM each time. Also, the TGI in the assay on NCI-H460 lung, in the assay on TK-10 renal and in the assay with SK-MEL-28 melanoma was over 100 µM throughout.
Turning to `[N-]=[N+]=Nc1c(Br)c(=O)[nH]c(=O)n1COCCO`, the TGI with SF-268 CNS, with KM12 colon, in the assay on HOP-62 NSCLC, in the assay with SNB-75 CNS, in the assay on K-562 leukemia and with NCI-H460 lung was over 100 µM each time. For the same compound, the TGI in the assay with TK-10 renal and in the assay on SK-MEL-28 melanoma was over 100 µM each time.
With `CNC(C)Cc1ccc(O)cc1` (stereo not drawn), the TGI with RPMI-8226 leukemia, in the assay on SF-268 CNS, in the assay on KM12 colon, in the assay with HOP-62 NSCLC, in the assay on SNB-75 CNS and in the assay with K-562 leukemia was over 100 µM each time. For the same compound, the TGI in the assay on NCI-H460 lung, with TK-10 renal and in the assay with SK-MEL-28 melanoma was over 100 µM each time.
Consider `c1ccc(COc2cccc3cccnc23)cc1`, for which the TGI with RPMI-8226 leukemia was over 100 µM; in the assay with SF-268 CNS, 88.4 µM; in the assay on KM12 colon, over 100 µM; in the assay with HOP-62 NSCLC, over 100 µM; in the assay on SNB-75 CNS it was over 100 µM; in the assay on K-562 leukemia, over 100 µM. The TGI in the assay on NCI-H460 lung, in the assay on TK-10 renal and in the assay on SK-MEL-28 melanoma was over 100 µM in each case.
`CC1=NN(C(=O)c2cc(Cl)cc([N+](=O)[O-])c2)C(=O)C1N=Nc1ccccc1C(=O)O` (stereo not drawn): the TGI with RPMI-8226 leukemia, with SF-268 CNS, in the assay on KM12 colon, in the assay with SNB-75 CNS, with K-562 leukemia and in the assay with NCI-H460 lung was over 100 µM throughout. In addition, the TGI with TK-10 renal and in the assay with SK-MEL-28 melanoma was over 100 µM throughout.
`CCOC(=O)/C(C#N)=C(N)/C(=N\Nc1cccc(C(F)(F)F)c1)C(=O)OCC`: the TGI with RPMI-8226 leukemia, in the assay on SF-268 CNS, in the assay with HOP-62 NSCLC, in the assay on SNB-75 CNS, in the assay on TK-10 renal and in the assay on SK-MEL-28 melanoma was over 100 µM each time.
Regarding `COC(=O)C12C3C4C1C1C2C3C41C(=O)N(C(C)C)C(C)C` (stereo not drawn), the TGI in the assay on SF-268 CNS, in the assay with KM12 colon, with HOP-62 NSCLC, in the assay with SNB-75 CNS, with K-562 leukemia and in the assay with NCI-H460 lung was over 100 µM each time. Also, the TGI in the assay with TK-10 renal and in the assay on SK-MEL-28 melanoma was over 100 µM each time.
For the compound `CC(C)(O)CCC(O)C(C)(O)C1CCC2(O)C3=CC(=O)C4(O)CC(O)C(O)CC4(C)C3CCC12C` (stereo not drawn) (tested in a mixture with another compound), the TGI in the assay on SF-268 CNS, with KM12 colon, in the assay on HOP-62 NSCLC, with SNB-75 CNS, in the assay on K-562 leukemia and in the assay with NCI-H460 lung was over 100 µM in each case. For the same compound, the TGI with TK-10 renal, with MCF7 breast and with SK-MEL-28 melanoma was over 100 µM in each case.
Turning to `Cc1cccc(O)c(=O)c1`, the TGI with RPMI-8226 leukemia was 92.6 µM; in the assay with SF-268 CNS, over 100 µM; in the assay with KM12 colon it was over 100 µM; with HOP-62 NSCLC it was over 100 µM; in the assay with SNB-75 CNS, over 100 µM; in the assay on NCI-H460 lung, over 100 µM. Moreover, the TGI with TK-10 renal and in the assay on SK-MEL-28 melanoma was over 100 µM each time.
For the compound `CCCCN(CCCC)C(=O)C(=O)CC(=O)/C=C/c1ccccc1`, the TGI in the assay with RPMI-8226 leukemia, in the assay with SF-268 CNS, in the assay with KM12 colon, in the assay on HOP-62 NSCLC, with SNB-75 CNS and in the assay on K-562 leukemia was over 100 µM throughout. The TGI with NCI-H460 lung, in the assay with TK-10 renal and in the assay with SK-MEL-28 melanoma was over 100 µM in each case.
Consider `CCCCCCCCCCCCCCC(O)C1CCC(C(O)CCC(O)CCCCCC(O)CC2=CC(C)OC2=O)O1` (stereo not drawn), for which the TGI in the assay on RPMI-8226 leukemia is 2.75 µM; in the assay with SF-268 CNS it was 12.2 µM; in the assay with HOP-62 NSCLC, 7.77 µM; with SNB-75 CNS, 8.88 µM; with K-562 leukemia, 3.68 µM; in the assay on TK-10 renal, 17.9 µM. In addition, the TGI with SK-MEL-28 melanoma worked out at 10.1 µM.
As to `CC(=O)NS(=O)(=O)c1ccc(-n2nc(-c3ccccc3)cc2C2=CC(=O)C=CC2=O)cc1`, the GI50 was over 100 µM in the assay with SF-268 CNS; over 100 µM in the assay on KM12 colon; over 100 µM with HOP-62 NSCLC; 57 µM in the assay on K-562 leukemia; over 100 µM in the assay on NCI-H460 lung; 75.4 µM in the assay with TK-10 renal. Further, the GI50 with MCF7 breast and in the assay on SK-MEL-28 melanoma was over 100 µM throughout. Also, the TGI with SF-268 CNS, with KM12 colon, in the assay on HOP-62 NSCLC, with K-562 leukemia, in the assay on NCI-H460 lung and in the assay on TK-10 renal was over 100 µM each time. In addition, the TGI in the assay on MCF7 breast and in the assay with SK-MEL-28 melanoma was over 100 µM in each case.
For the compound `C=C(C)[C@@H]1CC[C@]2(C)[C@H](CC=C3[C@@H]4[C@H](C)[C@@H](C)CC[C@]4(CO)CC[C@]32C)[C@@]1(C)CCCN`, the GI50 in the assay with SF-268 CNS is 1.22 µM; in the assay with KM12 colon, 0.908 µM; in the assay with HOP-62 NSCLC, 1.08 µM; with SNB-75 CNS, 0.848 µM; in the assay on K-562 leukemia, 1.22 µM; in the assay on NCI-H460 lung it was 0.914 µM. Moreover, the GI50 in the assay with TK-10 renal is 2.21 µM; with SK-MEL-28 melanoma, 0.952 µM. For the same compound, the TGI is 2.69 µM in the assay with SF-268 CNS; 1.65 µM with KM12 colon; 2.36 µM in the assay with HOP-62 NSCLC; 3.62 µM with SNB-75 CNS; 3.63 µM in the assay on K-562 leukemia; 1.71 µM in the assay with NCI-H460 lung. The TGI came out at 9.75 µM in the assay on TK-10 renal and 1.67 µM in the assay with SK-MEL-28 melanoma.

The record behind these values is PubChem BioAssay (NCI).
